From patent publication US20090186100A1, “MEDICAMENT FOR ANTI-AGING SKIN CARE AND WOUND HEALING AND USE THEREOF” (SAGITTARIUS LIFE SCIENCE CORP., priority 2008, published 2009)
Blank lines part the entries; values can stand above or below the compound they belong to.

Tests used:
[1] = Free radical scavenger, SOD mimetic activity (xanthine/xanthine oxidase/NBT); format: biochemical; details: 6.1 μM
Protocol: SS304L or vehicle was incubated with 0.12 mM xanthine, 6 mU xanthine oxidase, 27 μM nitroblue tetrazolium (NBT), 0.11 mM EDTA, 0.005% bovine serum albumin and Na2CO3 at pH 10.5 at 25° C. for 20 minutes. Conversion of xanthine to uric acid +O^−+NBT to formazan was then determined by measurement of absorbance at 595 nm and percent inhibition by superoxide dismutase or SS304L was calculated.

[2] = test system: Human dermal fibroblasts (HFB); test: HFB proliferation (MTT); format: cell-based; details: 72 hours; for Mean OD: MTT A570
Protocol: Human dermal fibroblasts (HFB) were cultured from foreskin with consent by cell emigration from ˜1 mm^3 skin pieces in DMEM+1 mM sodium pyruvate+2 mM glutamine+100 U/ml penicillin+100 ug/ml streptomycin+10% fetal calf serum (FCS) (C-DMEM) under humidified atmosphere containing 5% CO2 at 37° C.
1×10^4 HFB were seeded in a 96 multi-well culture dish. 48 hours later, the cells were treated with various concentrations of SS304L in C-DMEM under humidified atmosphere containing 5% CO2 at 37° C. The cells were exposed to drugs for 72 hours, and then treated with 0.5 mg/ml MTT for 4 hours at 37° C. The reduced formazan was dissolved in isopropanol containing 0.04 N HCl, and measured at A570 nm by an ELISA reader (Molecular Device).

Human recombinant COX II = target: T1, Human recombinant COX II (Homo sapiens, UniProt P35354); test: Inhibition of cyclooxygenase II; format: biochemical
T1 construct: purchased Sigma C-0858; host or cells: Sf21 insect cells
T1 sequence (P35354 18-604): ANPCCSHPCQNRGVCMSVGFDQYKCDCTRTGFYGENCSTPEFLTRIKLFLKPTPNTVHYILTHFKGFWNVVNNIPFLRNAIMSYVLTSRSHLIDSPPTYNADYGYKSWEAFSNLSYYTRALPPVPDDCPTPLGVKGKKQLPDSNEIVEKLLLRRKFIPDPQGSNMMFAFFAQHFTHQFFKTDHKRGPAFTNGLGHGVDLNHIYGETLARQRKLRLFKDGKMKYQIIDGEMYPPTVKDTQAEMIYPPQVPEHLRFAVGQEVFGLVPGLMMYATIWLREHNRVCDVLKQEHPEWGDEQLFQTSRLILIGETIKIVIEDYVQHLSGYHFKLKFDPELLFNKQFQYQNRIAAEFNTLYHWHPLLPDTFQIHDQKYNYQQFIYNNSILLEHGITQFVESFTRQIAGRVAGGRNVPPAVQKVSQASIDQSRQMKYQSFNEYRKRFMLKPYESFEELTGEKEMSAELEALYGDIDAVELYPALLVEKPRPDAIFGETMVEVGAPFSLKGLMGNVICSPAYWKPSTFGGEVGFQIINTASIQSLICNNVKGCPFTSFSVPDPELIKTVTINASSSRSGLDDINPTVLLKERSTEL
Protocol: SS304L or vehicle was […] with 0.11 U enzyme, 1 mM reduced glutathione, 500 μM phenol and 1 μM hematin in Tris-HCl, pH 7.7 at 37° C. for 15 minutes. 0.3 μM arachidonic acid as substrate was added and the reaction was terminated by addition of 1 N HCl after 5 minutes. The converted PGE2 was measured by an Amersham EIA kit following centrifugation. SS304L was assayed at 10 and 100 μg/ml.

[3] = test system: full thickness excision wounds; test: Full thickness excision wound healing in mice; format: in vivo, Aging male ICR mice
Protocol: Aging male ICR mice at body weights of 40 to 50 grams (Age: 14 to 16 weeks) were lightly anesthetized with ether. 0.7 mm in diameter full thickness excisions were conducted at the dorsal back skin after shaving and 70% ethanol sterilization. Immediately after excision, the wounds were covered with either vehicle (sterile 1% carboxymethyl cellulose, 25 μl) at first wound site of all mice, and with 1% arginine, 0.1% S[…], or 1% S[…] at the second wound site. Each group contained 4 to 6 mice. The drugs were applied on the day of photography (Day 0, 1, 2, 3, 4, 7, 10, 14, 18). The areas of the wounds and the rates and qualities of healing were compared at each time point. Arginine was used as comparison due to the similarity of part of its action mechanisms to S[…].

Compound: O=C(O[C@@H]1Cc2c(O)cc(O)cc2O[C@@H]1c1ccc(O)c(O)c1)c1cc(O)c(O)c(O)c1 [(−)-Epicatechin gallate]
Inhibition (%) [1]: 50%

Compound: C[C@]12CC[C@@H]3c4ccc(O)cc4CC[C@H]3[C@@H]1CC[C@@H]2O [Estradiol]
Inc. (%.) ([2]; Estradiol 1 nM): −4%
Mean OD ([2]; Estradiol 1 nM): 0.131
Inc. (%.) ([2]; Estradiol 3 nM): 4%
Mean OD ([2]; Estradiol 3 nM): 0.139
Inc. (%.) ([2]; Estradiol 10 nM): 2%
Mean OD ([2]; Estradiol 10 nM): 0.137
Inc. (%.) ([2]; Estradiol 30 nM): −3%
Mean OD ([2]; Estradiol 30 nM): 0.132
Inc. (%.) ([2]; Estradiol 100 nM): −4%
Mean OD ([2]; Estradiol 100 nM): 0.131

inhibition at 1 µM (Human recombinant COX II): 50%
Compound: CS(=O)(=O)Nc1ccc([N+](=O)[O-])cc1Oc1ccccc1 [Nimesulide]

Compound: N=C(N)NCCC[C@H](N)C(=O)O [arginine]
Inflammation of wounds ([3]; day 3 post wounding, topical): no apparent sign of inflammation
Re-epithelization/granulation process ([3]; day 7, topical): significantly facilitated
Unhealed wound areas compared to the areas of the vehicle treated wounds (fraction) ([3]; day 10, applied at 1%): ⅓ to ½
Healing of wounds ([3]; day 14, topical): completely healed

Compound: Vitamin A
Inc. (%) ([2]; Vitamin A 0.1 uM): −7%
Mean OD ([2]; Vitamin A 0.1 uM): 0.128
Inc. (%) ([2]; Vitamin A 0.3 uM): −4%
Mean OD ([2]; Vitamin A 0.3 uM): 0.131
Inc. (%) ([2]; Vitamin A 1 uM): −4%
Mean OD ([2]; Vitamin A 1 uM): 0.131
Inc. (%) ([2]; Vitamin A 3 uM): −12%
Mean OD ([2]; Vitamin A 3 uM): 0.124
Inc. (%) ([2]; Vitamin A 10 uM): −6%
Mean OD ([2]; Vitamin A 10 uM): 0.129

Compound: Vitamin E
Inc. (%.) ([2]; Vitamin E 3 uM): 0%
Mean OD ([2]; Vitamin E 3 uM): 0.135
Inc. (%.) ([2]; Vitamin E 10 uM): 9%
Mean OD ([2]; Vitamin E 10 uM): 0.144
Inc. (%.) ([2]; Vitamin E 30 uM): −4%
Mean OD ([2]; Vitamin E 30 uM): 0.131
Inc. (%.) ([2]; Vitamin E 100 uM): −9%
Mean OD ([2]; Vitamin E 100 uM): 0.126
Inc. (%.) ([2]; Vitamin E 300 uM): −16%
Mean OD ([2]; Vitamin E 300 uM): 0.120
